Measurements reported in publication PMC4757794 (2016).

How the values were obtained:
[1] = tested on: CC mismatched DNA (melting temperature experiment) (DNA, mismatch bulge abasic) ATCGTCTCGGTATAA/TTATACCCAGACGAT; assay: UV melting at 260 nm; conditions: compound equimolar to DNA
[2] = tested on: matched DNA (melting temperature experiment) (DNA, duplex) ATCGTCTCGGTATAA/TTATACCGAGACGAT; assay: UV melting at 260 nm; conditions: compound equimolar to DNA

C1CCC(P(CP(C2CCCCC2)C2CCCCC2)C2CCCCC2)CC1.[Pt+2].[Pt+2].[c-]1ccccc1-c1cccc(-c2ccccn2)n1.[c-]1ccccc1-c1cccc(-c2ccccn2)n1
ΔTm [1]: 6.8 °C | ΔTm [2]: 0.5 °C
